From patent publication US4421685A, “Process for producing an insulin” (Eli Lilly and Company, priority 1981, dated 1983)

How the values were obtained:
[1] = target: insulin receptor (Homo sapiens, UniProt P06213); assay: insulin radioreceptor assay; assay type: binding
Excerpt: (§1) Moreover, the product can be assayed for purity and activity by recognized methods such as polyacrylamide gel electrophoresis, amino acid analysis, insulin radioreceptorassay, insulin radioimmunoassay, high performance liquid chromatography (HPLC), ultraviolet spectrum, dansylation, rabbit blood glucose assay, and the like.
After acidification to pH 3.15 with glacial acetic acid, a portion of this solution was gel filtered on a 1.5×90 cm. column of Sephadex G-50 (Superfine) equilibrated and eluted with 1 M acetic acid at 4°-8° C. The [N-formyl-Gly^1 A] human insulin peak (elution volume 87-95 ml.) was pooled, aliquotted and lyophilized. This protein was judged to be quite clean by HPLC and amino acid analysis. The bioactivity of [N-formyl-Gly^1 -A] human insulin evaluated by radioreceptor assay was 17% relative to a human insulin standard.

[2] = system: rabbit blood glucose; assay: USP rabbit assay (rabbit blood glucose assay); assay type: in vivo; details: 144 rabbits; zinc insulin crystals redissolved in 0.01 N HCl
Excerpt: as §1
The resulting human insulin preparation was judged to be quite pure by polyacrylamide gel electrophoresis (a single band), amino acid analysis, insulin radioreceptorassay, insulin radioimmunoassay, HPLC, dansylation and UV spectrum. […] (anhydrous).

Chain of insulin receptor (P06213 28-758 limits assumed): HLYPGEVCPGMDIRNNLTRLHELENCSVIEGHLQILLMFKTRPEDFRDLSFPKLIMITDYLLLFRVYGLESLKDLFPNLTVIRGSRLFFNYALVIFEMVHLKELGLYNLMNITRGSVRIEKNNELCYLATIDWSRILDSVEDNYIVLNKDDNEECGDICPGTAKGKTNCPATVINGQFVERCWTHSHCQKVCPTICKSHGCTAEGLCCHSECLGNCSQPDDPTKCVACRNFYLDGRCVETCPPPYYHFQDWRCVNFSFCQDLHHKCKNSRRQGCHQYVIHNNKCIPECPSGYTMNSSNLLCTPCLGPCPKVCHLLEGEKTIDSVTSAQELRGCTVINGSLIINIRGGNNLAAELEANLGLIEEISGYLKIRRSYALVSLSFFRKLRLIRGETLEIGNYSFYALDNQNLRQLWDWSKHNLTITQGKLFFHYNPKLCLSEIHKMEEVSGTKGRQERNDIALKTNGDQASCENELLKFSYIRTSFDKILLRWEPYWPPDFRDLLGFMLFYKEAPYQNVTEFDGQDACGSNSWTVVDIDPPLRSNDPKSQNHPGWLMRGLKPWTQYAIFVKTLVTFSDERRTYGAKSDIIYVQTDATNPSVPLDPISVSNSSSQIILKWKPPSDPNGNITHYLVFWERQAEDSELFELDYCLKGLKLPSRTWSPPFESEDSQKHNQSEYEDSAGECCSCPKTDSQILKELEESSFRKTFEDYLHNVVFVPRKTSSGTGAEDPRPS
Chain of insulin receptor (P06213 763-1382 partner limits assumed): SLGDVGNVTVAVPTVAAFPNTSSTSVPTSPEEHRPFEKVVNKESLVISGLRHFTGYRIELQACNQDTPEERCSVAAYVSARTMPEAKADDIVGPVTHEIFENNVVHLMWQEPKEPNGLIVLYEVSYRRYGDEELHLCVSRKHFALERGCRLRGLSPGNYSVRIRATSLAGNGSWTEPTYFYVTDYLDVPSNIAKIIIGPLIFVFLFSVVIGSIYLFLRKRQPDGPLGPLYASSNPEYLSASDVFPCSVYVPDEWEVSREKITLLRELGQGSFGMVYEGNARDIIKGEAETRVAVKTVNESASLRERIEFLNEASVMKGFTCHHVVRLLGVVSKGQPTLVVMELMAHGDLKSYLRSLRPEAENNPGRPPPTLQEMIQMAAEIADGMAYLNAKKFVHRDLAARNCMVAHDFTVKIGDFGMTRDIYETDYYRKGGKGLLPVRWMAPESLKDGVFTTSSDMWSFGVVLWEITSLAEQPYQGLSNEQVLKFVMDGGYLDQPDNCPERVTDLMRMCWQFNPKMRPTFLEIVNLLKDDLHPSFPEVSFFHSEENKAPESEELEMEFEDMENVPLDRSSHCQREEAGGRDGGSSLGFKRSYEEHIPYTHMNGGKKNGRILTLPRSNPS

| Substance | bioactivity evaluated by radioreceptor assay relative to a human insulin standard [1] [%] | potency, USP rabbit assay [2] |
| --- | --- | --- |
| [N-formyl-Gly^1 -A] human insulin | 17 |  |
| human insulin |  | 26.3±1.8 units per mg. (anhydrous) |
